{"source": "patent US9434994B2", "about": "“Methods for prediction of clinical outcome to epidermal growth factor receptor inhibitors by non-small cell lung cancer patients” (The Regents of the University of Colorado, a body corporate, priority 2004, dated 2016)", "origin": "cited, not measured here", "key": {"NSCLC patients": {"system": "NSCLC patients", "details": "erlotinib versus placebo, second or third line; cited from earlier work"}, "[1]": {"system": "chemotherapy resistant NSCLC patients", "details": "single agent; cited from earlier work"}, "advanced BAC patients": {"system": "advanced BAC patients", "details": "cited from earlier work"}}, "data": [{"molecule": "C#Cc1cccc(Nc2ncnc3cc(OCCOC)c(OCCOC)cc23)c1", "note": "[erlotinib]", "values": [{"measurement": "Hazard Ratio, survival", "setting": "NSCLC patients", "value": 0.73}, {"measurement": "response rates", "setting": "[1]", "value": "about 10%"}]}, {"molecule": "CC(=O)O[C@H]1C(=O)[C@@]2(C)[C@H]([C@H](OC(=O)c3ccccc3)[C@]3(O)C[C@H](OC(=O)[C@H](O)[C@@H](NC(=O)c4ccccc4)c4ccccc4)C(C)=C1C3(C)C)[C@]1(OC(C)=O)CO[C@@H]1C[C@@H]2O", "note": "[paclitaxel]", "values": [{"measurement": "Median Survival", "setting": "advanced BAC patients", "value": 12, "unit": "months"}]}]}
